tested on: MSP1-19; assay: Epitope mapping: displacement of human IgG from peptide pins on exposure to MSP1-19; parameters: species or system Plasmodium falciparum; settings: change in human IgG binding to peptide pin after 1 h exposure to 50 mg/mL MSP1-19 at room temperature; normalised to no-peptide pins and control peptide GLAQG
Procedure: A natural human IgG antibody library was tested for its ability to bind to peptides associated with the 19 kDa C-terminal region of merozoite surface protein 1 (MSP1-19) from Plasmodium falciparum (Kaslow et al., Mol. Biochem. Parasitology 63:283-289 (1994)). The 89 amino acid sequence from MSP1-19 was used for the epitope mapping experiment (see Table 1).
Briefly, a library of pentamer peptides was synthesized on polypropylene pins following the procedures described by Geysen et al., Proc. Natl. Acad. Sci. USA 81:3998-4002 (1984). These peptides represented all five-amino-acid stretches of MSP1-19 offset by one residue (Table 1). Peptide pins were precoated in phosphate buffered saline (PBS), pH 7.2, containing 2% BSA and 0.1% TWEEN 20 for one hour at room temperature. Five successive washes of the pins were carried out for five minutes each with agitation in PBS. Human IgG (Calbiochem; San Diego Calif.) was complexed to the peptides by incubating 0.1 mg/mL IgG in PBS at 4° C. for 30 hours. Unbound antibody was removed by washing as described above in 10 mM TRIS, pH 7.4 buffer containing 150 mM NaCl (TBS) using new microtiter plates for transferring the pins for each of the five washings. Anti-human IgG (goat) alkaline phosphatase conjugate was diluted to 0.1 mg specific antibody/mL in TBS and incubated with the peptide/antibody complex for one hour at room temperature before washing five times with TBS, as described above. The pins were then incubated in assay solution containing 10 mM TRIS, pH 8.0, 150 mM NaCl, 0.5 mM MgCl2, and 0.1 mM 4-methylumbelliferyl-phosphate for 30 minutes at room temperature in the dark. Following incubation, the fluorescence intensity of the assay solution was measured in a Spectromax Gemini plate reader (Molecular Devices; Sunnyvale Calif.)(ex 358 nm/em 450 nm).
The peptide/antibody complexes on the pins were washed five times in TBS, as described above, and incubated with 50 mg/mL MSP1-19 diluted in TBS for one hour at room temperature. The pins were washed in TBS as before and incubated in assay mixture for 30 minutes in the dark prior to measurement of the fluorescent intensity. Change in binding was determined using the equation: ΔF=(FMSP−Fb,MSP)/(F100,MSP−Fb,MSP)−(F0−Fb,0)/(F100,0−Fb,0) where FMSP and F0 are the fluorescence intensities of peptide containing pins after and before exposure to MSP1-19, respectively. Fb,MSP and Fb,0 are the fluorescence intensities of pins with no peptide after and before exposure to MSP1-19, respectively. F100,MSP and F100,0 are the fluorescence intensities of pins containing a control peptide, GLAQG (SEQ ID NO:90), after and prior to exposure to MSP1-19.

| Substance | ΔF (%) |
| --- | --- |
| VENPN [Peptide 42] | <5% |
| VKKQC [Peptide 8] | <5% |
| YKQEG [Peptide 34] | <5% |
| YPLFD [Peptide 84] | 12% |
